Experimental data from patent US20220062296A1, “COMBINATIONS OF GABAA ALPHA 5 AGONISTS AND SV2A INHIBITORS AND METHODS OF USING IN THE TREATMENT OF COGNITIVE IMPAIRMENT” (AGENEBIO, INC., priority 2020, published 2022).

Experiments:
Assay type in all cases: in vivo, rat
aged-impaired rats [1] = experiment: Water maze probe test, acute and chronic Compound 1
From the text: Rats were trained and tested in a novel water maze environment to assess the effect of the treatments. The water maze used here was housed in a different room and was surrounded by curtains with a novel set of patterns relative to the maze used for initial assessment of cognitive status. The training and testing protocol used was identical to the spatial learning-activated protocol described in Haberman et al., (2008, Proceedings of the National Academy of Sciences USA, 105, 10601-10606). The task required rats to swim to a […] escape platform at a fixed location in the presence of spatial cues for 8 training trials with an inter-trial interval of 8 min. An hour after the last training trial, rats were given a probe test in the absence of the escape platform (free swim) to assess the memory of the platform location as measured by time spent searching at the target location.
To assess the acute and chronic effects of Compound 1 treatment, rats received 15-16 days of drug injections with assessment on the water maze on the first day (acute effect) and last day (chronic effect) of treatment. Different surrounding spatial cues and escape location in the water maze were used for the initial and subsequent assessments. Compound 1 was given at 10 mg/kg using intraperitoneal injection (IP) at a volume of 1 ml/kg. […]

aged-impaired rats [2] = experiment: Radial arm maze with 5-hr delay, acute Compound 1 via PO; settings: Compound 1 10 mg/kg PO, vs vehicle
Method: Food-deprived aged rats maintained at approximately 85% free-feeding weights were tested for their hippocampal-dependent memory in a radial arm maze task under varying doses of Compound 1 (a GABAA α5 receptor agonist):
The radial arm maze apparatus used consisted of eight equidistantly spaced arms. An elevated maze arm (7 cm width×75 cm length) projected from each facet of an octagonal center platform (30 cm diameter, 51.5 cm height). Clear side walls on the arms were 10 cm high and are angled at 65° to form a trough. A food well (4 cm diameter, 2 cm deep) was located at the distal end of each arm. Froot Loops™ (Kellogg Company) were used as rewards. Blocks constructed of Plexiglass™ (30 cm height×12 cm width) could be positioned to prevent entry to any arm. Numerous extra maze cues surrounding the apparatus were also provided. The rats were initially subjected to pre-training (Chappell et al., 1998). Pre-training consisted of a habituation phase, a training phase on the standard win-shift task and another training phase in which a progressively longer delay was imposed between presentation of a subset of arms designated by the experimenter (five arms available and three arms blocked) and completion of the eight-arm win-shift task (i.e., with all eight arms available).
In the habituation phase, rats were familiarized to the maze for a 10-minute session on several days. […]

aged-impaired rats [3] = experiment: Radial arm maze, Compound 1 IP alone and in combination with levetiracetam

**Q.** For COCc1nnc2n1Cc1c(C#Cc3cnc(OC)s3)ncn1-c1ccc(Cl)cc1-2 [Compound 1], which “time in the target quadrant of the Morris Water Maze” value (aged-impaired rats [1]; acute, Compound 1 10 mg/kg IP (first day)) is on record?
**A.** Its value is “spent more time in the target quadrant”.

**Q.** What about the “time in the target quadrant of the Morris Water Maze” value (aged-impaired rats [1]; chronic, Compound 1 10 mg/kg IP (last day of 15-16 days)) of the same compound?
**A.** The value was “spent more time in the target quadrant”.

**Q.** And the “number of errors in the radial arm maze” value (aged-impaired rats [2])?
**A.** Its value is “fewer errors”.

**Q.** And the “efficacy of Compound 1 on its own in the radial arm maze” value (aged-impaired rats [3]; 2.5 mg/kg IP)?
**A.** The value was “subtherapeutic”.

**Q.** And the “efficacy of Compound 1 on its own in the radial arm maze” value (aged-impaired rats [3]; 5 mg/kg IP)?
**A.** Its value is “subtherapeutic”.
